In the NIST ThermoML archive (doi:10.1016/j.jct.2013.12.025):

Test: refractive index (Na D-line) (dimensionless); xn = mol fraction of the nth substance listed
Settings: 101 kPa, Liquid, Standard Abbe refractometry

C=C[Si](C)(C)O[Si](C)(C)C=C [1,3-diethenyl-1,1,3,3-tetramethyldisiloxane] + O=[N+]([O-])c1ccccc1
refractive index
Settings | 293.15 K | 298.15 K | 303.15 K
x1 = 0.05 | – | 1.53724 | 1.5348
x1 = 0.1 | – | 1.52547 | 1.52302
x1 = 0.15 | – | 1.51459 | 1.51211
x1 = 0.2 | – | 1.50445 | 1.50196
x1 = 0.25 | – | 1.49511 | 1.49265
x1 = 0.3 | – | 1.48643 | 1.48396
x1 = 0.3508 | – | 1.47825 | 1.47577
x1 = 0.4001 | – | 1.47089 | 1.46841
x1 = 0.4501 | – | 1.46395 | 1.46144
x1 = 0.4999 | – | 1.45748 | 1.45493
x1 = 0.55 | 1.45401 | 1.45139 | 1.44883
x1 = 0.6001 | 1.4483 | 1.44568 | 1.44308
x1 = 0.6487 | 1.44307 | 1.44043 | 1.43783
x1 = 0.6999 | 1.43784 | 1.43521 | 1.43261
x1 = 0.7499 | 1.43306 | 1.43043 | 1.42778
x1 = 0.7999 | 1.42845 | 1.42584 | 1.42318
x1 = 0.8497 | 1.42414 | 1.42152 | 1.41887
x1 = 0.9 | 1.41999 | 1.41736 | 1.41471
x1 = 0.9499 | 1.41606 | 1.41343 | 1.41079
x1 = 1 | 1.41227 | 1.40965 | 1.407
